The source made the active and inactive calls. The rule behind the calls is not given here.
Assays:
[1] = test system: MDA-MB-231; assay: Induction of apoptosis in human MDA-MB-231 cells assessed as late apoptotic cells at 20 uM measured after 48 hrs by Annexin V-FITC/propidium iodide staining based flow cytometry (2.78%); assay type: functional
[2] = Cytotoxicity against human L02 cells assessed as inhibition of cell proliferation measured after 48 hrs by CCK8 assay; assay type: cell-based
[3] = test system: MDA-MB-231; assay: Cell cycle arrest in human MDA-MB-231 cells assessed as accumulation at S phase at 20 uM measured after 48 hrs by propidium iodide staining based flow cytometry (reference value: 26.45%); assay type: functional
[4] = test system: Jurkat; assay: Antiproliferative activity against human Jurkat cells assessed as inhibition of cell proliferation measured after 48 hrs by CCK8 assay; assay type: functional, cell-based
[5] = test system: MDA-MB-231; assay: Cell cycle arrest in human MDA-MB-231 cells assessed as accumulation at G0/G1 phase at 20 uM measured after 48 hrs by propidium iodide staining based flow cytometry (reference value: 57.65%); assay type: functional
[6] = test system: MDA-MB-231; assay: Induction of apoptosis in human MDA-MB-231 cells assessed as viable cells at 20 uM measured after 48 hrs by Annexin V-FITC/propidium iodide staining based flow cytometry (95.8%); assay type: functional; conditions: MDA-MB-231, 48 h, read-out: Activity
[7] = test system: MCF7; assay: Antiproliferative activity against human MCF7 cells assessed as inhibition of cell proliferation measured after 48 hrs by CCK8 assay; assay type: functional, cell-based; conditions: for GI50: MCF7, 48 h
[8] = test system: MDA-MB-231; assay: Cell cycle arrest in human MDA-MB-231 cells assessed as accumulation at G2/M phase at 20 uM measured after 48 hrs by propidium iodide staining based flow cytometry (reference value: 15.9%); assay type: functional
[9] = test system: MDA-MB-231; assay: Induction of apoptosis in human MDA-MB-231 cells assessed as necrotic cells at 20 uM measured after 48 hrs by Annexin V-FITC/propidium iodide staining based flow cytometry (0.498%); assay type: functional
[10] = test system: MDA-MB-231; assay: Antiproliferative activity against human MDA-MB-231 cells assessed as inhibition of cell proliferation measured after 48 hrs by CCK8 assay; assay type: functional, cell-based; conditions: for GI50: MDA-MB-231, 48 h
[11] = test system: MDA-MB-231; assay: Induction of apoptosis in human MDA-MB-231 cells assessed as early apoptotic cells at 20 uM measured after 48 hrs by Annexin V-FITC/propidium iodide staining based flow cytometry (0.877%); assay type: functional
[12] = target: CDK9/Cyclin K (Homo sapiens) (UniProt P50750+O75909); conditions: Sf9
[13] = Thermodynamic equilibrium solubility in normal saline by HPLC-based shake flask method; assay type: physicochemical; conditions: read-out: Therm_solubility
[14] = Thermodynamic equilibrium solubility in water by HPLC-based shake flask method; assay type: physicochemical; conditions: read-out: Therm_solubility
[15] = test system: MDA-MB-231; assay: Antitumor activity against human MDA-MB-231 cells xenografted in BALB/c nu/nu mouse assessed as tumor growth inhibition at 45 mg/kg, po administered once daily for 3 weeks and measured at 3 days interval during compound dosing; assay type: functional, organism-based
[16] = target: CDK3/Cyclin E (Homo sapiens) (UniProt P24864+Q00526); conditions: Sf9, 1 uM
Sequence of CDK3/Cyclin E (Homo sapiens) (P24864 whole entry, looked up): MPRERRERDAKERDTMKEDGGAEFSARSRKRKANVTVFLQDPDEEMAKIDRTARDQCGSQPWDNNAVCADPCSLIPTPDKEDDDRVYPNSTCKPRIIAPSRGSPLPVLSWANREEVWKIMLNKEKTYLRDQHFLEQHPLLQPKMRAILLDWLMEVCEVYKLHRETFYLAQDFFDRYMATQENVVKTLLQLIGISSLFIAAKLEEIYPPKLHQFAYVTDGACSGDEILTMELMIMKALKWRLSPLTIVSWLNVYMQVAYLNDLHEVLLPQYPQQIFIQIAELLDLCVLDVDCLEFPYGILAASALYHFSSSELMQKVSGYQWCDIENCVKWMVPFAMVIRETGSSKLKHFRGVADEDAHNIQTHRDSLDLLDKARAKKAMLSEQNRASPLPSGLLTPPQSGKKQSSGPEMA
Sequence of CDK3/Cyclin E (Homo sapiens) (Q00526 whole entry, looked up): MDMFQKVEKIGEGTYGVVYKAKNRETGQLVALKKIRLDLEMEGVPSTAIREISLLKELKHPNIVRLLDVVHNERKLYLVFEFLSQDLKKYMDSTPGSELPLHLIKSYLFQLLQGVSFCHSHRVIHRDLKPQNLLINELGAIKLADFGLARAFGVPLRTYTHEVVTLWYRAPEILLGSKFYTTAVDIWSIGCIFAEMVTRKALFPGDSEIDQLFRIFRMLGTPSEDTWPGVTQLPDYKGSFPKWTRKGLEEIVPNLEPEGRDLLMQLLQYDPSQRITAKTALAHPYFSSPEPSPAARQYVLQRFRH

[17] = target: Cyclin-dependent kinase 6 (Homo sapiens) (UniProt Q00534); assay: Inhibition of CDK6 in human MDA-MB-231 cells assessed as down regulation of E2F1 expression at 4 to 12 uM measured after 48 hrs by Western blot analysis; assay type: cell-based
Sequence of Cyclin-dependent kinase 6 (Homo sapiens) (Q00534 whole entry): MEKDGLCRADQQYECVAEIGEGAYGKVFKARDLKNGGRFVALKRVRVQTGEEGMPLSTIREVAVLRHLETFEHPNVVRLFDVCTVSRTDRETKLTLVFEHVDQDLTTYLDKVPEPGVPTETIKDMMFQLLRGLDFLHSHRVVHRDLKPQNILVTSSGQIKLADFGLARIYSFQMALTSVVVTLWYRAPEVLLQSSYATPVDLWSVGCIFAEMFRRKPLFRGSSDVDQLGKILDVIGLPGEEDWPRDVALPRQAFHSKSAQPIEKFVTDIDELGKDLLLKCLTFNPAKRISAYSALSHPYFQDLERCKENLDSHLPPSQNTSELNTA

[18] = test system: MDA-MB-231; assay: Induction of apoptosis in human MDA-MB-231 cells xenografted in BALB/c nu/nu mouse assessed as increase in cytoplasm shrinkage at 22.5 to 90 mg/kg, po administered once daily for 3 weeks measured post-last dose by H and E staining based histopathological analysis; assay type: functional, organism-based
[19] = target: Cyclin-dependent kinase 9 (Homo sapiens) (UniProt P50750); assay: Inhibition of CDK9 in human MDA-MB-231 cells assessed as reduction in c-Myc mRNA level at 4 to 12 uM by trizol reagent based qRT-PCR analysis; assay type: cell-based
Sequence of Cyclin-dependent kinase 9 (Homo sapiens) (P50750 whole entry, the tested form may be a part): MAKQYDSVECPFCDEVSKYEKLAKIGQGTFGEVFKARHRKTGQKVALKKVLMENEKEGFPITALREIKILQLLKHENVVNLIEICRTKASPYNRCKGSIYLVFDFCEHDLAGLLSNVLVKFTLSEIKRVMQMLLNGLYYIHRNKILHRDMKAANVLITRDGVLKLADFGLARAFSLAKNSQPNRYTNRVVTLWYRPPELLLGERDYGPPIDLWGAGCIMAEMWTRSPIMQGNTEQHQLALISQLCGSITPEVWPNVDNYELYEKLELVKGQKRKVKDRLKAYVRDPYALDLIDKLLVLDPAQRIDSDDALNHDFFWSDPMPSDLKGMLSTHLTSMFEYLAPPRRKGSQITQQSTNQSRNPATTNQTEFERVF

[20] = target: CDK9/cyclin T1 (Homo sapiens) (UniProt O60563+P50750); assay: Binding affinity to recombinant His-tagged CDK9/cyclin T1 (unknown origin) expressed in HEK293T cells assessed as thermal stabilization of protein at 10 uM measured for 3 mins at 57 degC by CETSA; assay type: cell-based; conditions: HEK-293T
[21] = test system: MDA-MB-231; assay: Induction of apoptosis in human MDA-MB-231 cells xenografted in BALB/c nu/nu mouse assessed as increase in nucleoplasm staining at 22.5 to 90 mg/kg, po administered once daily for 3 weeks measured post-last dose by H and E staining based histopathological analysis; assay type: functional, organism-based
[22] = target: T1, CDK6/cyclin D3 (Homo sapiens) (UniProt P30281+Q00534); assay: Binding affinity to recombinant His-tagged CDK6/cyclin D3 (unknown origin) expressed in HEK293T cells assessed as thermal stabilization of protein at 10 uM measured for 3 mins at 57 degC by CETSA; assay type: cell-based; conditions: HEK-293T
[23] = test system: MDA-MB-231; assay: Antitumor activity against human MDA-MB-231 cells xenografted in po dosed BALB/c nu/nu mouse assessed as tumor growth inhibition administered once daily for 3 weeks and measured at 3 days interval during compound dosing; assay type: functional, organism-based
[24] = test system: MDA-MB-231; assay: Induction of apoptosis in human MDA-MB-231 cells xenografted in BALB/c nu/nu mouse assessed as increase in intracellular space at 22.5 to 90 mg/kg, po administered once daily for 3 weeks measured post-last dose by H and E staining based histopathological analysis; assay type: functional, organism-based
[25] = target: Cyclin-dependent kinase 9 (Homo sapiens) (UniProt P50750); assay: Inhibition of CDK9 in human MDA-MB-231 cells assessed as reduction in Mcl-1 mRNA level at 4 to 12 uM by trizol reagent based qRT-PCR analysis; assay type: cell-based
[26] = target: Cyclin-dependent kinase 9 (Homo sapiens) (UniProt P50750); assay: Inhibition of CDK9 in human MDA-MB-231 cells assessed as down regulation of p-Pol II CTD S2 expression at 4 to 12 uM measured after 48 hrs by Western blot analysis; assay type: cell-based
[27] = test system: MDA-MB-231; assay: Induction of intracellular reactive oxygen species production in human MDA-MB-231 cells measured after 48 hrs by DCFH-DA probe based flow cytometry; assay type: functional, cell-based
[28] = test system: MDA-MB-231; assay: Effect on CDK9 expression in human MDA-MB-231 cells at 4 to 12 uM measured after 48 hrs by Western blot analysis; assay type: functional, cell-based
[29] = target: Cyclin-dependent kinase 9 (Homo sapiens) (UniProt P50750); assay: Inhibition of CDK9 in human MDA-MB-231 cells assessed as down regulation of cyclin T1 expression at 4 to 12 uM measured after 48 hrs by Western blot analysis; assay type: cell-based
[30] = target: Cyclin-C/Cyclin-dependent kinase 19 (Homo sapiens) (UniProt Q9BWU1+P24863); assay: Inhibition of recombinant human GST-tagged/His-tagged CDK11 (1 to 502 residues)/cyclinC (1 to 283 residues) expressed in insect cells at 1 uM using PAK1 (148 to 210 residues) as substrate measured after 10 to 60 mins by ADP-glo assay relative to control
[31] = test system: MDA-MB-231; assay: Effect on CDK6 expression in human MDA-MB-231 cells at 4 to 12 uM measured after 48 hrs by Western blot analysis; assay type: functional, cell-based
[32] = target: Cyclin-dependent kinase 6 (Homo sapiens) (UniProt Q00534); assay: Inhibition of CDK6 in human MDA-MB-231 cells assessed as down regulation of p-Rb expression at 4 to 12 uM measured after 48 hrs by Western blot analysis; assay type: cell-based
[33] = target: CDK9/Cyclin K (Homo sapiens, UniProt P50750); assay: biochemical
Sequence of CDK9/Cyclin K (P50750 whole entry): as the sequence (P50750 whole entry, the tested form may be a part) above
Sequence of CDK9/Cyclin K (O75909 whole entry, further chain): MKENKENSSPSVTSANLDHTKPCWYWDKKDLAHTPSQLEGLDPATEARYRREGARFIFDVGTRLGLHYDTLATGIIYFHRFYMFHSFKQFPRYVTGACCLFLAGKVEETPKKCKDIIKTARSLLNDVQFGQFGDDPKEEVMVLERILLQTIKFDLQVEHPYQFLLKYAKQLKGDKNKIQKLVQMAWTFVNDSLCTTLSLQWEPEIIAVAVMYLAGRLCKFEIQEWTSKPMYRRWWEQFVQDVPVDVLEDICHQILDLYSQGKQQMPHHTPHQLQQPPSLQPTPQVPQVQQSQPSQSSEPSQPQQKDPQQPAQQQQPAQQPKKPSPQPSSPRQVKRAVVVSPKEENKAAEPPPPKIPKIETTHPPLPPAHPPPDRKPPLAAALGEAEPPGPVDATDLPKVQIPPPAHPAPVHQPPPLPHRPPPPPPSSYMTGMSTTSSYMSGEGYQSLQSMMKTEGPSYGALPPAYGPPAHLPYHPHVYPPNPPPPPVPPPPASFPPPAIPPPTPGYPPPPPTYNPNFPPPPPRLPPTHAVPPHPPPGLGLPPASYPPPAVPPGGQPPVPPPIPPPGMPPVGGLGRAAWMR

[34] = target: CDK2/Cyclin A2 (Homo sapiens, UniProt P24941); parameters: species or system Sf9
[35] = target: CDK6/cyclin D3 (Homo sapiens, UniProt Q00534); parameters: species or system Sf9
Sequence of CDK6/cyclin D3 (P30281 whole entry): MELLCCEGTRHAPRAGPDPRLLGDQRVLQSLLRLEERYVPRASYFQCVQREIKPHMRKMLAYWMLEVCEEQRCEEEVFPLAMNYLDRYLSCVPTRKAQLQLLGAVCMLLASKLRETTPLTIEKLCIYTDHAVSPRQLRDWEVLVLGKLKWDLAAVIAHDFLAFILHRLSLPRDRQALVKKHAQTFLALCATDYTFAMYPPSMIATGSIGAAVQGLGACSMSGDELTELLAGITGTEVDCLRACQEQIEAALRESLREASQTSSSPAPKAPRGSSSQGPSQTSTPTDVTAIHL
Sequence of CDK6/cyclin D3 (Q00534 whole entry): as the sequence (Q00534 whole entry) above

[36] = species: Homo sapiens
[37] = target: T1, CDK6/cyclin D3 (Homo sapiens); conditions: Sf9

Compound | GI50 at 48 h [2] [µM] | GI50 [4] [µM] | GI50 [7] [µM] | GI50 [10] [µM] | inhibition [12] | IC50 [33] [µM] | IC50 [34] [µM] | IC50 [35] [µM] | other results
CC(=O)c1c(C)c2cnc(Nc3ccc(N4CCNCC4)cn3)nc2n(C2CCCC2)c1=O [PALBOCICLIB] | > 100 | > 100 | > 100 | > 100 | – | – | – | – | Activity [1]: 5.26%; Activity [3]: 4.98%; Activity [5]: 91.91%; viability at 20 µM [6]: 89%; Activity [8]: 3.12%; Activity [9]: 2.32%; Activity [11]: 3.43%
CN1CCN(c2ccc(Nc3ncc(Cl)c(Nc4cccc(OC(F)(F)F)c4)n3)nc2)CC1 | – | – | – | – | inactive | – | – | – | –
CN1CCN(c2ccc(Nc3ncc(Cl)c(Nc4ccc(OC(F)(F)F)cc4)n3)nc2)CC1 | – | – | – | – | inactive | – | – | – | –
CN1CCN(c2ccc(Nc3ncc(Cl)c(Nc4ccc(F)c(C(F)(F)F)c4)n3)nc2)CC1 | – | – | – | – | inactive | – | – | – | –
CC(=O)Nc1cccc(Nc2nc(Nc3ccc(N4CCN(C)CC4)cn3)ncc2Cl)c1.Cl | – | – | – | – | – | – | – | – | solubility thermodynamic [13]: 3.96 mg/mL; solubility thermodynamic [14]: 7.7 mg/mL
CCN1CCN(Cc2ccc(Nc3ncc(F)c(-c4cc(F)c5nc(C)n(C(C)C)c5c4)n3)nc2)CC1 [ABEMACICLIB] | – | 4.63 | 4.01 | 3.45 | – | – | – | – | TGI [15]: Active
CN1CCN(c2ccc(Nc3ncc(Cl)c(Nc4ccc(C(F)(F)F)cc4)n3)nc2)CC1 | – | – | – | – | inactive | – | – | – | –
CC(=O)Nc1cccc(Nc2nc(Nc3ccc(N4CCN(C)CC4)cn3)ncc2Cl)c1 | – | – | – | – | – | – | – | – | inhibition [16]: < 6.6%; inhibition [17]: Active; Activity [18]: Active; inhibition [19]: Active; Activity [20]: Active; Activity [21]: Active; Activity [22]: Active; TGI [23]: Dose-dependent effect; Activity [24]: Active; inhibition [25]: Active; inhibition [26]: Active; Activity [27]: Dose-dependent effect; Activity [28]: inactive; inhibition [29]: Active; inhibition [30]: < 6.6%; Activity [31]: inactive; inhibition [32]: Active
CN1CCN(c2ccc(Nc3ncc(Cl)c(Nc4cccc(F)c4)n3)nc2)CC1 | – | – | – | – | inactive | – | – | – | –
Cc1ccccc1Nc1nc(Nc2ccc(N3CCN(C)CC3)cn2)ncc1Cl | 5.98 | 8.08 | 5.21 | 7.47 | – | 0.152 | > 10 | 0.0157 to 0.016 | Ratio IC50 [36]: 10
CN1CCN(c2ccc(Nc3ncc(Cl)c(Nc4ccccc4F)n3)nc2)CC1 | – | – | – | – | inactive | – | – | – | inhibition [37]: inactive; inhibition [4]: Active; inhibition [7]: Active; inhibition [10]: Active
Cc1ccccc1Nc1nc(Nc2cc(Cl)ccn2)ncc1Cl | 41.5 | 39.6 | > 100 | 52.4 | – | > 10 | > 10 | > 10 | –
Cc1ccccc1Nc1nc(Nc2ccccc2)ncc1Cl | > 100 | > 100 | > 100 | > 100 | – | > 10 | > 10 | > 10 | –
CC(C)c1cccc(Nc2nc(Nc3ccc(N4CCN(C)CC4)cn3)ncc2Cl)c1 | 12.5 | 12.2 | 8.64 | 5.59 | – | 0.654 | > 10 | 0.452 | –
Cc1ccccc1Nc1nc(Nc2ccc(N3CCOCC3)cn2)ncc1Cl | 1.99 | 14.1 | 6.63 | 5.98 | – | 0.051 | > 10 | 0.046 | –
Cc1ccccc1Nc1nc(Nc2ccc(N3CCN(C(=O)OC(C)(C)C)CC3)cc2)ncc1Cl | 1.75 | 5.12 | 2.25 | 3.26 | – | 0.176 | 0.192 | 0.116 | –
CCc1ccc(Nc2nc(Nc3ccc(N4CCN(C)CC4)cn3)ncc2Cl)cc1 | 12.1 | 11.1 | 8.23 | 5.56 | – | 6.87 | > 10 | 0.281 | –
CN1CCN(c2ccc(Nc3ncc(Cl)c(Nc4ccc(F)cc4)n3)nc2)CC1 | – | – | – | – | inactive | – | – | – | –
Cc1ccccc1Nc1nc(Nc2ccc(N3CCNCC3)cn2)ncc1Cl | 1.85 | 7.87 | 3.41 | 5.06 | – | 0.114 | 2.06 | 0.042 | –
Cc1ccccc1Nc1nc(NCc2ccncc2)ncc1Cl | > 100 | > 100 | > 100 | > 100 | – | > 10 | > 10 | > 10 | –
CN1CCN(c2ccc(Nc3ncc(Cl)c(NCc4ccc(F)cc4)n3)nc2)CC1 | 39.7 | > 100 | 19.3 | > 100 | – | > 10 | > 10 | > 10 | –

Reference: ChEMBL document CHEMBL4602695, “Discovery and SARs of 5-Chloro-N4-phenyl-N2-(pyridin-2-yl)pyrimidine-2,4-diamine Derivatives as Oral Available and Dual CDK 6 and 9 Inhibitors with Potent Antitumor Activity” (J Med Chem, 2020)
